{"source": "patent US20100239596A1", "about": "“GRP78 AND TUMOR ANGIOGENESIS” (UNIVERSITY OF SOUTHERN CALIFORNIA, priority 2007, published 2010)", "key": {"[1]": {"test_system": "TuBEC (tumor-associated brain endothelial cells)", "type": "cell-based", "conditions": "seven days; for TuBEC cell death, agent alone: TMZ 300 μM, CPT-11 100 μM, Eto 50 μM, EGCG 20 μM", "protocol": "Cell death ELISA. EC were treated with etoposide (Calbiochem; La Jolla, Calif.), temozolomide (TMZ) (Schering-Plough; Kenilworth, N.J.), CPT-11 (Pharmacia; New York, N.Y.), the caspase inhibitor Q-VDOPH (Calbiochem), or EGCG (Sigma-Aldrich, St. Louis, Mo.), then assayed using the Cell Death Detection ELISA Plus kit (Roche Diagnostics; Indianapolis, Ind.) according to manufacturer's protocol. Percent death was calculated based on 100% positive cell death control.\nLentiviral construct. The sequences of siRNA, the isolation of human Grp78 cDNA and their subcloning into lentiviral constructs are previously described (Dong et al, Cancer Res., 65:5785-91, 2005). The sequences of the siRNA against human GRP78 are: siGRP78A: 5′-[…]-3′ (SEQ ID NO:1) and siGRP78B: 5′-[…]-3′ (SEQ ID NO:2). The sequences of the control siRNA are: sicontrol A: 5′-[…]-3′ (SEQ ID NO:3); sicontrol B: 5′-[…]-3′ (SEQ ID NO:4). For construction of lentivirus expressing GRP78, full length human GRP78 was prepared by reverse transcription of total HEK293T RNA followed by a 2-step PCR amplification and subcloning into the BamHI/XhoI sites of pcDNA3 (Invitrogen; Carlsbad, Calif.) to yield pcDNA3-hGRP78. Non-replicating lentiviral vectors co-expressing bicistronic human GRP78 and EGFP linked via the EMCV IRES were produced using the pLenti6/V5-D-TOPO and VIRAPOWER™ Lentivirus Expression system (Invitrogen, Carlsbad, Calif.). Initially, EGFP (Clonetech; Mountain View, Calif.) was inserted into the CMV driven expression cassette by TOPO cloning. […] The human GRP78 gene digested from pcDNA3-hGRP78 using XbaI and XhoI was ligated into pLenti6/EGFP between the CMV promoter and the EGFP gene. Next, an insert encoding the EMCV IRES, was generated by PCR from pIRES-EGFP (Clonetech) and subcloned into the XhoI/AgeI sites of pLenti6/huGRP78 EGFP. The IRES sequence was inserted between the human GRP78 gene and the EGFP allowing hGRP78 expression to be monitored by EGFP fluorescence. The manufacturer's manual was followed for TOPO cloning and production of viral particles. For infection, 10^4 cells were plated in 6-well dishes and infected with lentivirus at titers of 5×10^6 units/ml (TU/ml). Infected cells, monitored for GFP, were used when cultures were 100% GFP positive.\nTo test whether GRP78 confers drug resistance to TuBEC, TuBEC cultures were infected with lentivirus expressing siGRP78A and siCtr1A. Five days post infection, cultures were left untreated (media), or treated with CPT-11 [100 μM], etoposide (Eto) [50 μM] or temozolomide (MZ) [300 μM]. After treatment for seven days, the cells were analyzed for cytotoxicity.\nTo target GRP78 through a small molecule approach, TuBEC were incubated with EGCG alone or in combination with TMZ, CPT-11, and Eto. Cytotoxicity was measured after seven days (FIG. 3D)."}, "[2]": {"test_system": "BEC (normal human brain endothelial cells)", "assay": "MTT cell viability assay, BEC", "type": "cell-based", "conditions": "50 μM etoposide, 72 hours, vs DMSO vehicle", "protocol": "(§1) Cell Culture. Endothelial cells (EC) were isolated from normal human brain tissue or human glioma tissue as previously described (Charalambous et al, J. Neurosurg., 102:699-705, 2005; Charalambous et al, Exp Cell Res., 313:1192-202, 2007). All experiments were performed on subconfluent (60-80%) cultures, in passages 4 to 6 only.\n(§2) MTT cell viability assay. Cells were plated in triplicate (3×10^3 cells/well; […]) into 96-well plates coated with 1% gelatin. The 3-(4,5-dimethylthiazol-2-yl)-2,5-diphenyltetrazolium bromide (MTT) assay was performed according to the manufacturer's instructions (Sigma-Aldrich, St. Louis, Mo.). Percent cell viability was calculated relative to vehicle-treated controls.\n(§3) To compare the sensitivities of TuBEC and BEC to chemotherapeutic agents, cells were treated with the topoisomerase II inhibitor, etoposide [1-50 μM] or DMSO (vehicle) [0.1%] for 72 hours, and cytoxicity was assessed using the MTT assay, which was performed according to manufacturer's protocol (Sigma Aldrich; St. Louis, Mo.)."}, "[3]": {"test_system": "TuBEC (tumor-associated brain endothelial cells)", "assay": "MTT cell viability assay, TuBEC", "type": "cell-based, human", "conditions": "50 μM etoposide, 72 hours, vs DMSO vehicle", "protocol": "as §1, §2, §3"}}, "data": [{"compound": "CCc1c2c(nc3ccc(OC(=O)N4CCC(N5CCCCC5)CC4)cc13)-c1cc3c(c(=O)n1C2)COC(=O)[C@]3(O)CC", "note": "[CPT-11]", "values": [{"measurement": "TuBEC cell death, agent alone", "setting": "[1]", "result": "did not cause TuBEC cell death"}]}, {"compound": "CC(C)[C@H](NC(=O)c1ccc2ccccc2n1)C(=O)N[C@@H](CC(=O)O)C(=O)COc1c(F)cccc1F", "note": "[Q-VDOPH]", "values": [{"measurement": "effect of caspase inhibition on cell death induced by CPT-11, Eto or TMZ with reduced GRP78", "setting": "[1]; Q-VDOPH [10 mM], TuBEC infected with siGRP78B", "result": "blocked cell death"}]}, {"compound": "(−)-epigallocatechin gallate [EGCG]", "values": [{"measurement": "cell death, EGCG in combination with CPT-11", "setting": "[1]; EGCG 20 μM + CPT-11 100 μM, p=0.005", "result": 46, "unit": "%"}, {"measurement": "cell death, EGCG in combination with Eto", "setting": "[1]; EGCG 20 μM + Eto 50 μM, p=0.001", "result": 49, "unit": "%"}, {"measurement": "cell death, EGCG in combination with TMZ", "setting": "[1]; EGCG 20 μM + TMZ 300 μM, p=0.003", "result": 35, "unit": "%"}, {"measurement": "TuBEC cell death, agent alone", "setting": "[1]", "result": "did not cause TuBEC cell death"}]}, {"compound": "COc1cc([C@@H]2c3cc4c(cc3[C@@H](O[C@@H]3O[C@@H]5CO[C@@H](C)O[C@H]5[C@H](O)[C@H]3O)[C@H]3COC(=O)[C@H]23)OCO4)cc(OC)c1O", "note": "[etoposide]", "values": [{"measurement": "BEC died (cytotoxicity, MTT assay)", "setting": "[2]", "result": "over 60%"}, {"measurement": "cell death of TuBEC (cytotoxicity, MTT assay)", "setting": "[3]", "result": "no significant cell death"}, {"measurement": "TuBEC cell death, agent alone", "setting": "[1]", "result": "did not cause TuBEC cell death"}]}]}
